# Literature values, collected in US5700484A, “Sustained release microparticulate caffeine formulation” (Nestec S.A., priority 1996, dated 1997).
# Conditions: 350 mg caffeine oral, aqueous solution
structure (smiles),measurement,value
"Cn1c(=O)c2c(ncn2C)n(C)c1=O [caffeine, 1,3,7-trimethyl xanthine]",maximum plasma level,approximately 8.3 μg/ml
